Measured values from US5561149A, “Use of certain imidazol carbazols in treating stress-related manic-depressive disorders” (priority 1986, dated 1996).
Where two headings read alike, the source gives them in different places.

Key:
[1] = tested on: male OF-1 mice (social interactions and feeding); experiment: Competitive feeding, Study C; format: in vivo, mouse
Protocol: In this test 8 pairs of male OF-1 mice deprived of food for 6 hours are forced to compete over 6 minutes for a single food pellet. […]

[2] = tested on: mice (approach-oriented behaviour); experiment: Approach-oriented behaviour in mice in stress-situations; format: in vivo, mouse; details: for approach-oriented social behaviours: food deprived mice under white light; for effect on promoting social interaction under stress related conditions: mouse, in vivo
Protocol: Trials have been carried out on the effects of the compounds of the invention on approach-oriented behaviour in mice. The compounds increase approach-oriented behaviour in stress-situations normally inhibitory to social responses. Thus situations involving unfamiliar surroundings, contact with foreign aggressive opponents, competition for food, were created under reversed lighting conditions whereby observations were performed during the darkphase. Under these conditions, untreated rodents exihibit high levels of flight, particularly depressive ambivalence and escape behaviour, but low levels of social behaviour involving approach activity.

[3] = tested on: mice (stretched attend postures); details: H. P. Kasermann, Psychopharmacology 1986, 89, 31-37; cited from earlier work
[4] = 26 week toxicity study in the dog; details: in vivo, po, 26 weeks, read-out: no toxic effect bowel (dose), dog
Text: (§1) Toxicity and Tolerability studies may be effected in conventional manner with the compounds of the invention to determine the upper dosage.
(§2) Toxicity studies may be effected for example in the rat and the dog over for example 26 weeks.

[5] = tested on: intruder mice (approach-oriented social activities); experiment: Intruder test, Study B (large cage); format: in vivo, mouse; details: for escape behaviour: single compounds: 1 microgram/kg, in general about 0.01 to about 100 microgram/kg i.p.
Protocol: Study A was modified using a large cage (59×38.5×20 cm) which allowed greater freedom of movement so that elements of defense could be separated more clearly from the approach-oriented social activities. The compounds of the invention were given i.p. at doses from about 0.01 to about 100 microgram/kg 45 minutes before the encounter.
Indruders received the drug. […] In this test at a dose of 1 microgram/kg compound E promoted 8 elements of approach oriented social activities by about 40 per cent. […] Compound H at the same dose promoted 3 elements of approach-oriented social activities by about 40 per cent.

[6] = Bioavailability and pharmacokinetic profile after nasal / oral administration; format: in vivo, mammals including rhesus monkeys and humans; details: plasma; ca. 5 to 10 minutes following nasal administration
Protocol: The bioavailability and pharmacokinetic profile of the compounds of the invention may be determined in conventional manner, e.g. in mammals including rhesus monkeys and humans. The concentrations of the compounds of the invention in the blood plasma after administration of from about 0.01 to about 10 mg/kg to each nostril, e.g. 7.5 mg in the case of compound E, locally to the nasal mucous membrane, e.g. as a spray, may be determined in conventional manner by e.g. radioimmunoassay or HPLC methods. The compounds of the invention are rapidly absorbed, e.g. over about 10 minutes.

[7] = tested on: plasma corticosterone; experiment: Corticosterone levels (Endocrinological profile); format: in vivo, mouse; details: reduction at high, increase of basal levels at low doses
[8] = tested on: 5-HT3 receptors; details: guinea pig ileum; P. Donatsch et al., Br.j. Pharmacol. 1984, 81,348; cited from earlier work
[9] = tested on: healthy human volunteers; experiment: Tolerability in healthy human volunteers; format: in vivo; details: single doses
Text: as §1

[10] = 26 week toxicity study in the rat; details: in vivo, po, 26 weeks, read-out: no toxic effect (dose), rat
Text: as §1, §2

[11] = tested on: 5-HT3 receptors; details: rabbit vagus; P. Donatsch et al., Br.j. Pharmacol. 1984, 81,348; cited from earlier work
[12] = tested on: intruder mice (social behaviour); experiment: Intruder test, Study A; format: in vivo, mouse; details: 1 mg/kg p.o., 1 hour before the encounter
Protocol: A foreign male mouse (intruder), placed for 6 minutes, into the cage of an isolated male is attacked and responds with defensive escape patterns collectively known as "flight". Flight and associated defensive activities over-ride the intruder's tendency to approach the attacker so that much of the behaviour includes social forms of ambivalence.
Intruders receiving oral doses of benzodiazepines show less of these defensive activities and more approach-oriented behaviour (A. K. Dixon Triangle 1982, 21, 95-105; M. Krisak, Br. J. Pharmacol 1975, 55, 141-150), e.g. investigation, aggression and sexual activity.
The compounds of the invention are administered 1 hour before the encounter per-orally at from about 0.1 to about 10 mg/kg. Groups of 8 mice pairs are used. The frequency and duration of social and non-social behaviour of the mice were recorded using ethological techniques.

[13] = tested on: 5-HT3 receptors; details: rabbit heart; P. Donatsch et al., Br.j. Pharmacol. 1984, 81,348; cited from earlier work
[14] = tested on: mice (stretched attend postures); experiment: Stretched Attend Postures (SAP) (No conflict); format: in vivo, mouse; details: doses higher than 0.1 mg/kg
Protocol: Mice placed upon an unfamiliar elevated platform in a novel environment display characteristic stretched body postures called SAP's which signify amibivalence.
The compounds of the invention administered p.o. at a dose of from about 0.1 to about 10 mg/kg. 2 hours before the test reduce the duration of SAP when placed on the platform for 2 minutes under conditions where no other mice are present.

[15] = Bioavailability of co-administered peptide (salmon calcitonin) on nasal administration; format: in vivo; details: rhesus monkey
Protocol: Additionally, the compounds of the invention when administered, e.g. at a dose of from 0.01 to 10 mg/kg with a therapeutically effective dosage of another compound, e.g. a peptide, such as salmon calcitonin increases the absorption thereof.

[16] = 0.1 mg/kg p.o., 2 hours before the encounter

Compound: CC(NC(C)(C)C)C(=O)c1cccc(Cl)c1 (stereo not shown) [bupropion]
- increase in mean frequency of social interactions ([1]; 2.5 mg/kg, competitive feeding experiment study c)): 179 per cent
- approach-oriented social behaviours [2]: increase approach-oriented social behaviours
- effect on promoting social interaction under stress related conditions [2]: pronounced effect

Compound: O=C1CC2(CCCC2)CC(=O)N1CCCCN1CCN(c2ncccn2)CC1 [buspirone]
- incidence of SAP's [3]: reduce the incidence of SAP's

Compound: CN1[C@@H]2CC[C@H]1C[C@@H](OC(=O)c1c[nH]c3ccccc13)C2 [compound E, Indol-3-yl carboxylic acid endo-8-methyl-8-aza-bicyclo-[3.2.1]oct-3-yl ester]
- increase in mean frequency of social interactions ([1]; 0.01 mg/kg, competitive feeding experiment study c)): 54 per cent
- increase in duration of feeding [1, 16]: 55 per cent
- increase in duration of social interactions relative to controls [1, 16]: 321 per cent
- increase in frequency of feeding [1, 16]: 4 per cent
- increase in frequency of social interactions relative to controls [1, 16]: 54%
- NOAEL at 4368 h [4]: 5 to 20 mg/kg/day
- promotion of 8 elements of approach oriented social activities ([5]; 1 microgram/kg i.p., 45 minutes before the encounter, 8 elements): about 40 per cent
- escape behaviour [5]: reduced escape behaviour
- concentration at 10 min [6]: 200 ng/mL
- corticosterone profile compared with diazepam [7]: analogous to that observed with diazepam
- antagonistic action against 5-HT3 receptors [8]: antagonistic action
- well tolerated single dose without relevant side effects [9]: up to 150 mg
- NOAEL at 4368 h [10]: 16 to 45 mg/kg/day
- antagonistic action against 5-HT3 receptors [11]: antagonistic action
- frequency of social inter-action ([12]; increased from ca 60): ~80
- duration of social inter-action ([12]; increased from ca 90): ~120 s
- antagonistic action against 5-HT3 receptors [13]: antagonistic action
- effect on SAP at higher doses [14]: the effect was less
- effect on promoting social interaction under stress related conditions [2]: pronounced effect

Compound: Cc1nccn1CC1CCc2c(c3ccccc3n2C)C1=O (stereo not shown) [compound H, 1,2,3,9-tetrahydro-9-methyl-3-[(2-methyl-1H-imidazol-1-yl)methyl]-4H-carbazol-4-one]
- promotion of 3 elements of approach-oriented social activities ([5]; 1 microgram/kg i.p., 45 minutes before the encounter, 3 elements): about 40 per cent
- cage exploratory behaviour ([5]; 1 microgram/kg i.p., indicative of a stimulant effect): increase cage exploratory behaviour
- escape behaviour [5]: effect on escape behaviour was less

Compound: CN1C(=O)CN=C(c2ccccc2)c2cc(Cl)ccc21 [diazepam]
- ambivalent behaviour ([2]; reversed lighting, darkphase, stress-situations): reduce the ambivalent behaviour
- social behaviour / approach-oriented behaviour in stress-situations ([2]; reversed lighting, darkphase, stress-situations normally inhibitory to social responses): can increase social behaviour

Compound: CN(C)CCCN1c2ccccc2CCc2ccccc21 [impramine]
- approach-oriented social behaviours [2]: increase approach-oriented social behaviours

Compound: salmon calcitonin
- bioavailability of salmon calcitonin (AUC up to 2 hours), with compound E ([15]; salmon calcitonin 100 IU + compound E 15 mg, half to each nostril): 1.632 m IU/ml/hr/plasma
- bioavailability of salmon calcitonin (AUC up to 2 hours), before increase by compound E ([15]; salmon calcitonin 100 IU nasal, without compound E): 0.08 mIU/ml/hr
